Experimental data: ChEMBL document CHEMBL5465560, “Selectivity Literature for EUbOPEN Chemogenomic Library” (2024)
One block for each compound: values may come before it.

Tests used:
[1] = target: Serine/threonine-protein kinase 10 (Homo sapiens) (UniProt O94804); assay: Selectivity interaction (ActivX KiNativ screen (kinase selectivity in THP-1 cell lysates)) EUB0000639a STK10; type: subcellular; conditions: lysate, at 5 µM
[2] = target: T1, cAMP-dependent protein kinase catalytic subunit PRKX (Homo sapiens) (UniProt P51817); assay: Selectivity interaction (Kinase panel (Invitrogen)) EUB0000639a PRKX; conditions: at 200 nM
T1 sequence (whole entry): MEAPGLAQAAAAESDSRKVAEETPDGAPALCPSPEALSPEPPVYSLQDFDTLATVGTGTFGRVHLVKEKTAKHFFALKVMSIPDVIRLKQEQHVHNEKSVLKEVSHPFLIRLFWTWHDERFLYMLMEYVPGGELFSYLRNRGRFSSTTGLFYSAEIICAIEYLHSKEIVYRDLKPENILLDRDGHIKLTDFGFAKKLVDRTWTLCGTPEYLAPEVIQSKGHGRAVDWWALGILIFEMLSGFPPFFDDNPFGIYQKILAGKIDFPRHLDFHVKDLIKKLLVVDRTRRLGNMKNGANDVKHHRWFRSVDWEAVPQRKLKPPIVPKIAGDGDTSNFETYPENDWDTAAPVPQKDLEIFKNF

[3] = target: T2, Serine/threonine-protein kinase ICK (Homo sapiens) (UniProt Q9UPZ9); assay: Selectivity interaction (KinomeScan (DiscoverX)) EUB0000595a ICK; conditions: at 10 µM
T2 sequence (whole entry): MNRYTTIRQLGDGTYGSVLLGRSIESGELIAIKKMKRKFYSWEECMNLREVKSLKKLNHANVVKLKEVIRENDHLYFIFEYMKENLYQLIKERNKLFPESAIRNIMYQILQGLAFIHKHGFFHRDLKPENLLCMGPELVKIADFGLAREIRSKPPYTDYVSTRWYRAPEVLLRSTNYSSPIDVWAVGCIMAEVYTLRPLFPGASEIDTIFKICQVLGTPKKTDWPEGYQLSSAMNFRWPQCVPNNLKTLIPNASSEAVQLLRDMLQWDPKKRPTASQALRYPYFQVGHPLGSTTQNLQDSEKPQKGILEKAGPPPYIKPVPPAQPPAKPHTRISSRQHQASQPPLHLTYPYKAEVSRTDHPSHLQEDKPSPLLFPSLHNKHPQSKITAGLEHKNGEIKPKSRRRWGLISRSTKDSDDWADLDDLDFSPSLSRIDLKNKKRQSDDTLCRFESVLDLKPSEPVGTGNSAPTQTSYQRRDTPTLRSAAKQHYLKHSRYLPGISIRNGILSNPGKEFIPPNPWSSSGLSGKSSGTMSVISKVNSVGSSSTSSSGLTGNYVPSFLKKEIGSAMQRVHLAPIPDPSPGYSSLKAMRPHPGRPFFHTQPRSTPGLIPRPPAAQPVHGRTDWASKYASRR

[4] = target: Serine/threonine-protein kinase PRP4 homolog (Homo sapiens) (UniProt Q13523); assay: Selectivity interaction (KinomeScan (DiscoverX)) EUB0000595a PRPF4B; conditions: at 10 µM
[5] = target: T3, Mitogen-activated protein kinase 13 (Homo sapiens) (UniProt O15264); assay: Selectivity interaction (Ambit KINOMEscan and KiNATiv profiling in Jurkat cells) EUB0000090b MAPK13; type: cell-based; conditions: at 1 µM
T3 sequence (whole entry): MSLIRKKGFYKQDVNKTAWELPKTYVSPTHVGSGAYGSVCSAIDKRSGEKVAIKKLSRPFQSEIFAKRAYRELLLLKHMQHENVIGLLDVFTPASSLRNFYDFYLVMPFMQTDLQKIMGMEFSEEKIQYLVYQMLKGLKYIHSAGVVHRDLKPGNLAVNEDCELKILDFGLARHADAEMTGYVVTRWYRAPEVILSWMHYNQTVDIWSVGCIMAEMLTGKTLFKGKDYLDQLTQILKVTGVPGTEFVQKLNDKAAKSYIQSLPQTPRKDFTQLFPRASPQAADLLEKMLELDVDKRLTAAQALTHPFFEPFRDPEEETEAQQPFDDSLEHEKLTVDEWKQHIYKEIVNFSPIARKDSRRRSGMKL

[6] = target: Calcium/calmodulin-dependent protein kinase kinase 1 (Homo sapiens) (UniProt Q8N5S9); assay: Selectivity interaction (KinomeScan (DiscoverX)) EUB0000618a CAMKK1; conditions: at 10 µM
[7] = target: Casein kinase I isoform gamma-2 (Homo sapiens) (UniProt P78368); assay: Selectivity interaction (KinomeScan (DiscoverX)) EUB0001619a CSNK1G2; conditions: at 1 µM
[8] = target: T4, Receptor-interacting serine/threonine-protein kinase 1 (Homo sapiens) (UniProt Q13546); assay: Selectivity interaction (KinomeScan (DiscoverX)) EUB0001619a RIPK1; conditions: at 1 µM
T4 sequence (whole entry): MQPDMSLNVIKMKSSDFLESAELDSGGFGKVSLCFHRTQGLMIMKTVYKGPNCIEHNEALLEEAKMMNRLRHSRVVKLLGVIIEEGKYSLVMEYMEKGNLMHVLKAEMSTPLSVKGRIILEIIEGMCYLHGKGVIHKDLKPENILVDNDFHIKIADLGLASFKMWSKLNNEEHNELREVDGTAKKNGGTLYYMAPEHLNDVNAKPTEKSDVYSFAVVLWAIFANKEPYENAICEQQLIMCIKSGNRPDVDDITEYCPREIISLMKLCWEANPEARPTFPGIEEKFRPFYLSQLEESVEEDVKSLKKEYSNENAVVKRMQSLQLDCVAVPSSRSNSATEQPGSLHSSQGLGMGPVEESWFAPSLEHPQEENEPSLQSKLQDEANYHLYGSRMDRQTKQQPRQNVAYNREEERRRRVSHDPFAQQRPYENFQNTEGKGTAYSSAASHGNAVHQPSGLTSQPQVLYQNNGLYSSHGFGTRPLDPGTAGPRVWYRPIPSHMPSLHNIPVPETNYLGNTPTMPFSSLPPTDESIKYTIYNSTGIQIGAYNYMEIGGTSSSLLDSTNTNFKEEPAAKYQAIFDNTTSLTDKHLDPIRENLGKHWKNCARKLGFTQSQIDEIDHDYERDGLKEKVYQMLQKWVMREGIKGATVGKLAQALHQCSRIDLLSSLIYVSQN

Sequence of Serine/threonine-protein kinase PRP4 homolog (Homo sapiens) (Q13523 whole entry): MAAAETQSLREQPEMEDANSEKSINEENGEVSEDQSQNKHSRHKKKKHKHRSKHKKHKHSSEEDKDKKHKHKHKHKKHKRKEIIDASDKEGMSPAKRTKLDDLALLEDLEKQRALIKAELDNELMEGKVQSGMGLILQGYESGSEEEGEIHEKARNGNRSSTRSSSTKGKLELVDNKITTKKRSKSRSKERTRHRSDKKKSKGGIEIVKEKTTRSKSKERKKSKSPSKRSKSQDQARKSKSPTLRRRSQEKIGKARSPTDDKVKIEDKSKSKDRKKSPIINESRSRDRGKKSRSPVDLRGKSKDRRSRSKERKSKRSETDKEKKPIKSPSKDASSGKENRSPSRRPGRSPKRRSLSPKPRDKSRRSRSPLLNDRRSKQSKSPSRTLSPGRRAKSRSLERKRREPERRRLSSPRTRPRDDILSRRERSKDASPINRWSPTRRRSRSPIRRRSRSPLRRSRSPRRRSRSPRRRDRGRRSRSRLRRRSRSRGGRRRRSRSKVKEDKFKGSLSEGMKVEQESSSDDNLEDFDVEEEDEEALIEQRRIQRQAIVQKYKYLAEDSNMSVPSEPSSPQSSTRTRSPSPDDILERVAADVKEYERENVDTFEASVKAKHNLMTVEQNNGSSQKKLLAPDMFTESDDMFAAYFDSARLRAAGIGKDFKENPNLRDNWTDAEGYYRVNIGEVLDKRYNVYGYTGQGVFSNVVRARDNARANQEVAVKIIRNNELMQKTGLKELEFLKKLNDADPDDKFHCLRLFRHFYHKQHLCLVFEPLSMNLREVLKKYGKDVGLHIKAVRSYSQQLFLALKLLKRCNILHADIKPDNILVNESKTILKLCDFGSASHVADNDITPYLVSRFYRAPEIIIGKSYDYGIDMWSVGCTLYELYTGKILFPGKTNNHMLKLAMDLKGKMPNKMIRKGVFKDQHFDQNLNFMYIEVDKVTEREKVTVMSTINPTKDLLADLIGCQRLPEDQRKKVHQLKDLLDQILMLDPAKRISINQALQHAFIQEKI
Sequence of Serine/threonine-protein kinase 10 (Homo sapiens) (O94804 whole entry, looked up): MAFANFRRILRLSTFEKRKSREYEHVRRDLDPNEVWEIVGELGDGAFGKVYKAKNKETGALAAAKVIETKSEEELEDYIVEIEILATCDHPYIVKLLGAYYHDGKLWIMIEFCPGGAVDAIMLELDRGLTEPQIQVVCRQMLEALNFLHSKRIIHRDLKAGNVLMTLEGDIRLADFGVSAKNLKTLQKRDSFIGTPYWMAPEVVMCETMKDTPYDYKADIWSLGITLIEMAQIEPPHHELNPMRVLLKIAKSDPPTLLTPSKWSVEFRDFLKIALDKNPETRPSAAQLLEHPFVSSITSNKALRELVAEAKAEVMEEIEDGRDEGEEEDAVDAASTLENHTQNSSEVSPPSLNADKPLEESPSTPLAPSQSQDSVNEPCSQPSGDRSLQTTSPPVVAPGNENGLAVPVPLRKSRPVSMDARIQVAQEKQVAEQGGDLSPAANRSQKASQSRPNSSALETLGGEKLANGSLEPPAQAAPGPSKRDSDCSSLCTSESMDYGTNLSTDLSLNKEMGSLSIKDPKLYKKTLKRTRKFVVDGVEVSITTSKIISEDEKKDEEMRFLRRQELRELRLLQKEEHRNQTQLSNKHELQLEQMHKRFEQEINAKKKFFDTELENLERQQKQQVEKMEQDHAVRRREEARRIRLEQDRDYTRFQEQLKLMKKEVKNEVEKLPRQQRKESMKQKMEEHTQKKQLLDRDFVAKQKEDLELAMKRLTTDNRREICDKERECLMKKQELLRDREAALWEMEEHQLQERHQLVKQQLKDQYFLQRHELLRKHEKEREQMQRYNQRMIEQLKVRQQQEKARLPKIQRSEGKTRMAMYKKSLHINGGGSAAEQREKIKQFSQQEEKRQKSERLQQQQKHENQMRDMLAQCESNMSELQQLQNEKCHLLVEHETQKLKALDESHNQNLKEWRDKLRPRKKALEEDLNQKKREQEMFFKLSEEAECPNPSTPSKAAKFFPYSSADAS
Sequence of Casein kinase I isoform gamma-2 (Homo sapiens) (P78368 whole entry, looked up, canonical isoform): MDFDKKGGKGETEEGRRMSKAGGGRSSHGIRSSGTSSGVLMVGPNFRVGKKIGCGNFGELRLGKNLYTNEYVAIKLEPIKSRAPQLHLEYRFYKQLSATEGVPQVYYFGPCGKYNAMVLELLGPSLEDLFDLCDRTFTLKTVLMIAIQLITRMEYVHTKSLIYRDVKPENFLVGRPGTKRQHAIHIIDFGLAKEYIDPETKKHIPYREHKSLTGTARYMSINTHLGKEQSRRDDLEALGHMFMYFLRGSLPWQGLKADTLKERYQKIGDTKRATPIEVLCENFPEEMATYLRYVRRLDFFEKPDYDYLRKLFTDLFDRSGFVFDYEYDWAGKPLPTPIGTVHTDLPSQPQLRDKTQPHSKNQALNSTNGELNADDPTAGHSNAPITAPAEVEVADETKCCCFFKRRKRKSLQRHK
Sequence of Calcium/calmodulin-dependent protein kinase kinase 1 (Homo sapiens) (Q8N5S9 whole entry, looked up, canonical isoform): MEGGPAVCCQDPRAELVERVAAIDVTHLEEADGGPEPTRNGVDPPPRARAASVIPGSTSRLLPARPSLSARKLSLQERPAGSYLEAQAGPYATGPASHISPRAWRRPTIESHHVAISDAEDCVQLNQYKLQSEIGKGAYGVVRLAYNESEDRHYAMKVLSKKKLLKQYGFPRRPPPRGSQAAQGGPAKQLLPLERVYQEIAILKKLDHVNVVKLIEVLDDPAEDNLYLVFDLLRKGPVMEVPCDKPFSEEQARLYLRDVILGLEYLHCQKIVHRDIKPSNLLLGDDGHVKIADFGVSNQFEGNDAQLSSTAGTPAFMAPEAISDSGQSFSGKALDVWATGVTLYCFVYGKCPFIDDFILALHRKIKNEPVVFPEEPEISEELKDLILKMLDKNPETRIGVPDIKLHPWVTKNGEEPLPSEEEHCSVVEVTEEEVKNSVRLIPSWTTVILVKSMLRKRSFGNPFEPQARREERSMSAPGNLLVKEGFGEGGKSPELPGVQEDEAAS

% of inhibition [1]: -16.6%
% of inhibition [2]: 11.1%
Compound: CC[C@@H]1[C@H](F)C(=O)N[C@@H]1COc1nccc2cc(C(N)=O)c(OC)cc12 [ZIMLOVISERTIB]

Compound: COCC(=O)NC/C=C/c1ccc2ncnc(Nc3ccc(Oc4ccc(C)nc4)c(C)c3)c2c1 [CP-724714]
% of control [3]: 100%
% of control [4]: 93%

Compound: CN(C)C/C=C/C(=O)Nc1ccc(C(=O)N2CCCC(Nc3ncc(Cl)c(-c4c[nH]c5ccccc45)n3)C2)cc1 (stereo not drawn)
% of control [5]: 85%

Compound: O[C@H]1CC[C@H](Nc2ncc3nc(Nc4c(F)cc(F)cc4F)n([C@H]4CCOC4)c3n2)CC1
% of control [6]: 100%

Compound: N#Cc1cccc(-c2c[nH]c3ncnc(N4CCOCC4)c23)c1
% of control [7]: 89%
% of control [8]: 100%
